Consider 14 compounds from ChEMBL document CHEMBL2390858, “Design, synthesis and anti-tuberculosis activity of 1-adamantyl-3-heteroaryl ureas with improved in vitro pharmacokinetic properties” (Bioorg Med Chem, 2013).

Data set [1] is described as follows: Metabolic stability in CD-1 mouse liver microsomes assessed as compound remaining after 90 mins in presence of NADPH. The format is ADME, Microsome. The following applies: read-out: Stability. On the technique in general: Microsomes from liver hold many membrane-bound enzymes, among them those of drug oxidation.
The target in data set [2] is T1, Bifunctional epoxide hydrolase 2 (Homo sapiens, UniProt P34913).
T1 sequence (P34913 whole entry): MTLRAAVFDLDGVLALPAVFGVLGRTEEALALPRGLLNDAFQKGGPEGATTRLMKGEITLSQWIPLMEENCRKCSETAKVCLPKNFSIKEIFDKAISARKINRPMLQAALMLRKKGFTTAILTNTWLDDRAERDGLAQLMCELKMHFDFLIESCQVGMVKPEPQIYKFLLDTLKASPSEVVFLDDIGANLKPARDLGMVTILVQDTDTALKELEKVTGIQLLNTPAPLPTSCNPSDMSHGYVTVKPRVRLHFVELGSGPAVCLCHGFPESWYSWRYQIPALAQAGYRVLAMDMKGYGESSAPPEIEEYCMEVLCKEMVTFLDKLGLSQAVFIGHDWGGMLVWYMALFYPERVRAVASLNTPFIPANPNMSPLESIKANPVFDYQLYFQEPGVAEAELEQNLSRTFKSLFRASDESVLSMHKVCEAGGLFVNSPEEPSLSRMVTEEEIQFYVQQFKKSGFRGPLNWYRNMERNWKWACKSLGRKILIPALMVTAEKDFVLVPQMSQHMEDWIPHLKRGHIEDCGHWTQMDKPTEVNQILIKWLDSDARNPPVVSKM

For the next data set, the system named is Vero. In words: cells. The following applies: Chlorocebus sabaeus, 72 h.
The next data set concerns Pseudomonas aeruginosa. Description: microbe, parasite or virus in culture.
In a further data set the test system is Proteus vulgaris. In words: microbe, parasite or virus in culture.
A further data set deals with Proteus mirabilis. Description: microbe, parasite or virus in culture.
Another data set has as its system Klebsiella pneumoniae. In words: microbe, parasite or virus in culture.
A further data set deals with Escherichia coli. In words: microbe, parasite or virus in culture. The following applies: K-12.
The next data set relates to Bacillus subtilis. In words: microbe, parasite or virus in culture.
The next data set has as its system Acinetobacter. Description: microbe, parasite or virus in culture.
In the next data set the test system is Streptococcus pneumoniae. Description: microbe, parasite or virus in culture.
The test system of a further data set is Streptococcus pyogenes. Description: microbe, parasite or virus in culture.
Data set [3] concerns Staphylococcus aureus. Description: microbe, parasite or virus in culture. The following applies: NRS70.
The subject of data set [4] is Staphylococcus aureus. In words: microbe, parasite or virus in culture. The following applies: ATCC 29213.
The next data set has as its system Enterococcus faecalis. Description: microbe, parasite or virus in culture.
A further data set deals with Bacillus anthracis. In words: microbe, parasite or virus in culture. The following applies: Sterne.
Data set [5] deals with Mycobacterium tuberculosis. In words: microbe, parasite or virus in culture. The following applies: H37Rv, 168 h.
In a further data set the test system is Plasma. The following applies: human, 4 h, 10 µM.
The conditions of data set [6]: buffer.
For another data set, the system named is Burkholderia cepacia. In words: microbe, parasite or virus in culture.
A further data set is described as follows: in vitro. The following applies: human, plasma.
Another data set is described as follows: physchem. The following applies: system solution buffer, pH 7.4.

Broadly, the IC50 is the concentration that gives 50% inhibition. For orientation: solubility means how much of the substance goes into solution per volume. The fraction unbound is free concentration divided by total concentration.

Each structure is given as a SMILES string. ≈ marks a conversion by molar mass, not a printed value. A value given as a limit tells only on which side of the number the result lay.

With `CC(C)(C)c1cc(NC(=O)NC23CC4CC(CC(C4)C2)C3)no1`, in [1], the remaining at […] was > 30%. Moreover, the IC50 in data set [2] amounted to 56 nM; in the data set on Vero, 6 µg/mL (≈ 18.9 µM). For the same compound, the MIC is > 200 µg/mL against Pseudomonas aeruginosa; > 200 µg/mL in the data set with Proteus vulgaris; > 200 µg/mL against Proteus mirabilis; > 200 µg/mL in the data set on Klebsiella pneumoniae; 100 µg/mL (≈ 315 µM) in the data set with Escherichia coli; > 200 µg/mL with Bacillus subtilis. Besides, the MIC against Acinetobacter is > 200 µg/mL; in the data set on Streptococcus pneumoniae, > 200 µg/mL; against Streptococcus pyogenes, > 200 µg/mL; with Staphylococcus aureus [3], 200 µg/mL (≈ 630 µM); against Staphylococcus aureus [4] it was 100 µg/mL (≈ 315 µM); in the data set with Enterococcus faecalis it was 100 µg/mL (≈ 315 µM). The MIC in the data set on Bacillus anthracis is > 200 µg/mL; in data set [5], 1.56 µg/mL (≈ 4.91 µM).
On to `CCCn1nc(NC(=O)NC2C3CC4CC(C3)CC2C4)cc1C` (centres undefined), for which the results for the IC50 (in [2]; in the data set on Vero) were 936 nM and 83 µg/mL (≈ 262 µM), respectively. The PPB in the data set on Plasma turned out to be 98.9%. Also, the solubility in [6] (18 h, pH 7.4) amounted to 2 µg/mL (≈ 6.32 µM). The MIC with Pseudomonas aeruginosa, against Proteus vulgaris, against Proteus mirabilis, in the data set with Klebsiella pneumoniae, with Escherichia coli and with Burkholderia cepacia was > 200 µg/mL each time. For the same compound, the MIC in the data set with Bacillus subtilis, in the data set with Acinetobacter, against Streptococcus pneumoniae, against Streptococcus pyogenes, in the data set with Staphylococcus aureus [3] and with Staphylococcus aureus [4] was > 200 µg/mL throughout. The MIC in the data set with Enterococcus faecalis is > 200 µg/mL; with Bacillus anthracis, > 200 µg/mL; in data set [5], 1.56 µg/mL (≈ 4.93 µM).
For `Cc1cc(NC(=O)NC2C3CC4CC(C3)CC2C4)no1` (centres undefined), the IC50 in data set [2] was 5 nM; in the data set with Vero it was > 48 µg/mL. The solubility in data set [6] (18 h, pH 7.4) worked out at 25.5 µg/mL (≈ 92.6 µM). Also, the MIC in the data set on Pseudomonas aeruginosa, in the data set on Proteus vulgaris, against Proteus mirabilis, with Klebsiella pneumoniae, against Escherichia coli and with Burkholderia cepacia was > 200 µg/mL each time. Also, the MIC against Bacillus subtilis, against Acinetobacter, in the data set with Streptococcus pneumoniae, against Streptococcus pyogenes, with Staphylococcus aureus [3] and in the data set on Staphylococcus aureus [4] was > 200 µg/mL each time. In addition, the MIC against Enterococcus faecalis was > 200 µg/mL; against Bacillus anthracis it was > 200 µg/mL; in [5], 6.25 µg/mL (≈ 22.7 µM).
For `O=C(Nc1ncco1)NC12CC3CC(CC(C3)C1)C2`, the IC50 in data set [2] turned out to be 948 nM; with Vero it was 22 µg/mL (≈ 84.2 µM). Moreover, the solubility in [6] (18 h, pH 7.4) amounted to 4.4 µg/mL (≈ 16.8 µM). Moreover, the MIC against Pseudomonas aeruginosa, in the data set with Proteus vulgaris, against Proteus mirabilis, against Klebsiella pneumoniae, in the data set on Escherichia coli and in the data set on Burkholderia cepacia was > 200 µg/mL each time. The MIC in the data set on Bacillus subtilis, in the data set with Acinetobacter, against Streptococcus pneumoniae, in the data set on Streptococcus pyogenes, against Staphylococcus aureus [3] and with Staphylococcus aureus [4] was > 200 µg/mL throughout. Besides, the values for the MIC (with Enterococcus faecalis; in the data set with Bacillus anthracis; in data set [5]) were > 200 µg/mL, > 200 µg/mL and 6.25 µg/mL (≈ 23.9 µM), respectively.
Regarding `CC1C(NC(=O)Nc2ccc(F)c(F)c2F)CC2CC1C2(C)C` (centres undefined), the unbound share (fraction unbound) at 4 h, 10 µM in the data set “in vitro” was 0.008. In “physchem”, the solubility at 18 h is < 0.1 µg/mL.
For `N#Cc1ccc(NC(=O)NC2C3CC4CC(C3)CC2C4)cc1` (centres undefined) the same measures were 0.01 and < 0.1 µg/mL.
For the compound `COC(=O)c1ccc(NC(=O)NC23CC4CC(CC(C4)C2)C3)cc1O`, the solubility in [6] (pH 7.4, 18 h) is 0.51 µg/mL (≈ 1.48 µM). The fraction unbound at 4 h, 10 µM in “in vitro” was 0.031.
On to `O=C(Nc1nnc(C2CC2)o1)NC1C2CC3CC(C2)CC1C3` (centres undefined), for which the IC50 in data set [2] came out at 2410 nM; with Vero it was 180 µg/mL (≈ 595 µM). In addition, the MIC was > 200 µg/mL with Pseudomonas aeruginosa; > 200 µg/mL against Proteus vulgaris; > 200 µg/mL in the data set with Proteus mirabilis; > 200 µg/mL against Klebsiella pneumoniae; > 200 µg/mL with Escherichia coli; 200 µg/mL (≈ 661 µM) in the data set with Burkholderia cepacia. Further, the MIC with Bacillus subtilis is > 200 µg/mL; in the data set with Acinetobacter it was > 200 µg/mL; in the data set on Streptococcus pneumoniae, > 200 µg/mL; in the data set on Streptococcus pyogenes it was > 200 µg/mL; in the data set on Staphylococcus aureus [3] it was > 200 µg/mL; against Staphylococcus aureus [4], 200 µg/mL (≈ 661 µM). For the same compound, the figures for the MIC (against Enterococcus faecalis; in the data set with Bacillus anthracis; in data set [5]) were > 200 µg/mL, > 200 µg/mL and 3.13 µg/mL (≈ 10.4 µM), respectively.
With `O=C(Nc1nnc(C2CCC2)o1)NC1C2CC3CC(C2)CC1C3` (centres undefined), in [1], the remaining at […] is > 30%. Further, the IC50 in data set [2] was determined as 382 nM; in the data set on Vero, 36 µg/mL (≈ 114 µM). Moreover, the MIC is > 200 µg/mL against Pseudomonas aeruginosa; > 200 µg/mL with Proteus vulgaris; > 200 µg/mL in the data set with Proteus mirabilis; > 200 µg/mL with Klebsiella pneumoniae; > 200 µg/mL in the data set with Escherichia coli; 50 µg/mL (≈ 158 µM) against Burkholderia cepacia. The MIC is 50 µg/mL (≈ 158 µM) in the data set with Bacillus subtilis; > 200 µg/mL in the data set on Acinetobacter; 100 µg/mL (≈ 316 µM) with Streptococcus pneumoniae; 100 µg/mL (≈ 316 µM) against Streptococcus pyogenes; > 200 µg/mL in the data set on Staphylococcus aureus [3]; > 200 µg/mL in the data set on Staphylococcus aureus [4]. Moreover, the values for the MIC (against Enterococcus faecalis; with Bacillus anthracis; in data set [5]) were > 200 µg/mL, 25 µg/mL (≈ 79 µM) and 0.78 µg/mL (≈ 2.47 µM), respectively.
For the compound `Cc1csc(NC(=O)NC23CC4CC(CC(C4)C2)C3)n1`, the IC50 turned out to be 485 nM in data set [2] and 13 µg/mL (≈ 44.6 µM) in the data set with Vero. Further, the MIC in the data set with Pseudomonas aeruginosa, in the data set on Proteus vulgaris, in the data set with Proteus mirabilis, against Klebsiella pneumoniae, against Escherichia coli and against Burkholderia cepacia was > 200 µg/mL in each case. The MIC is > 200 µg/mL in the data set with Bacillus subtilis; > 200 µg/mL against Acinetobacter; 25 µg/mL (≈ 85.8 µM) against Streptococcus pneumoniae; > 200 µg/mL with Streptococcus pyogenes; 100 µg/mL (≈ 343 µM) in the data set with Staphylococcus aureus [3]; 50 µg/mL (≈ 172 µM) with Staphylococcus aureus [4]. Also, the MIC was > 200 µg/mL with Enterococcus faecalis, > 200 µg/mL in the data set on Bacillus anthracis and 1.56 µg/mL (≈ 5.35 µM) in [5].
As to `O=C(Nc1ccc(F)c(F)c1F)NC12CC3CC(CC(C3)C1)C2`, the solubility at 18 h in the data set “physchem” was < 0.1 µg/mL.
With `Cc1ccc(NC(=O)NC2CCCCCC2)cc1Cl`, the fraction unbound at 4 h, 10 µM in the data set “in vitro” is 0.003. In addition, the solubility at 18 h in the data set “physchem” is < 0.1 µg/mL.
With `Cc1csc(NC(=O)NC2C3CC4CC(C3)CC2C4)n1` (centres undefined), the IC50 came out at 710 nM in data set [2] and 60 µg/mL (≈ 206 µM) in the data set on Vero. For the same compound, the MIC with Pseudomonas aeruginosa, against Proteus vulgaris, against Proteus mirabilis, against Klebsiella pneumoniae, against Escherichia coli and in the data set with Burkholderia cepacia was > 200 µg/mL each time. Also, the MIC against Bacillus subtilis was > 200 µg/mL; against Acinetobacter, > 200 µg/mL; in the data set on Streptococcus pneumoniae, 100 µg/mL (≈ 343 µM); in the data set on Streptococcus pyogenes, 200 µg/mL (≈ 686 µM); in the data set with Staphylococcus aureus [3], 100 µg/mL (≈ 343 µM); against Staphylococcus aureus [4], 200 µg/mL (≈ 686 µM). Further, the results for the MIC (against Enterococcus faecalis; against Bacillus anthracis; in data set [5]) were > 200 µg/mL, > 200 µg/mL and 1.56 µg/mL (≈ 5.35 µM), respectively.
As to `CC(C)c1nnc(NC(=O)NC23CC4CC(CC(C4)C2)C3)o1`, the IC50 in data set [2] is 557 nM; in the data set with Vero, 11 µg/mL (≈ 36.1 µM). Besides, the PPB in the data set with Plasma is 99.3%. The same compound displayed a solubility in data set [6] (18 h, pH 7.4) of 9.54 µg/mL (≈ 31.3 µM). Moreover, the MIC in the data set with Pseudomonas aeruginosa, with Proteus vulgaris, in the data set on Proteus mirabilis, against Klebsiella pneumoniae, in the data set on Escherichia coli and in the data set on Burkholderia cepacia was > 200 µg/mL throughout. In addition, the MIC against Bacillus subtilis, against Acinetobacter, with Streptococcus pneumoniae, in the data set on Streptococcus pyogenes, against Staphylococcus aureus [3] and in the data set with Staphylococcus aureus [4] was > 200 µg/mL in each case. The values for the MIC (in the data set on Enterococcus faecalis; against Bacillus anthracis; in data set [5]) were > 200 µg/mL, > 200 µg/mL and 1.56 µg/mL (≈ 5.12 µM), respectively.
